Columns and labels:
HT-29 = experiment: cells; details: Homo sapiens, HT-29, 48 h; for GI50: read-out: HT29 GI50; for CC50: read-out: HT29 LC50; for IC (TGI): read-out: HT29 TGI
Outline: (§1)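 Colorimetric SRB read (490 nm) on triplicate wells after 48 h at 37 °C, 5% CO2. Dose range 10 to 10^−8 μg/ml; 5×10^3 cells/well pre-attached 18 h.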

A-549 = experiment: cells; details: Homo sapiens, A549, 48 h; for GI50: read-out: A549 GI50; for CC50: read-out: A549 LC50; for IC (TGI): read-out: A549 TGI
Outline: as §1

LoVo = experiment: cells; details: Homo sapiens, LoVo, 48 h; for GI50: read-out: LOVO GI50; for CC50: read-out: LOVO LC50; for IC (TGI): read-out: LOVO TGI
Outline: as §1

LNCaP = experiment: Inhibition of cells growth by colorimetric assay (SRB); details: Homo sapiens, LNCaP, 48 h; for GI50: read-out: LNCAP GI50; for CC50: read-out: LNCAP LC50; for IC (TGI): read-out: LNCAP TGI
Outline: as §1

HeLa = experiment: as above; details: Homo sapiens, HeLa, 48 h; for GI50: read-out: HELA GI50; for CC50: read-out: HELA LC50; for IC (TGI): read-out: HELA TGI
Outline: as §1

SK-BR-3 = experiment: as above; details: Homo sapiens, SK-BR-3, 48 h; for GI50: read-out: SK-BR3 GI50; for CC50: read-out: SK-BR3 LC50; for IC (TGI): read-out: SK-BR3 TGI
Outline: as §1

K-562 = experiment: as above; details: Homo sapiens, K562, 48 h; for GI50: read-out: K562 GI50; for CC50: read-out: K562 LC50; for IC (TGI): read-out: K562 TGI
Outline: as §1

LoVo-Dox = experiment: as above; details: Homo sapiens, 48 h; for GI50: read-out: LOVO-DOX GI50; for CC50: read-out: LOVO-DOX LC50; for IC (TGI): read-out: LOVO-DOX TGI
Outline: as §1

DU-145 = experiment: as above; details: Homo sapiens, DU-145, 48 h; for GI50: read-out: DU145 GI50; for CC50: read-out: DU145 LC50; for IC (TGI): read-out: DU145 TGI
Outline: as §1

IGROV-1 = experiment: as above; details: Homo sapiens, IGROV-1, 48 h; for GI50: read-out: IGROV GI50; for CC50: read-out: IGROV LC50; for IC (TGI): read-out: IGROV TGI
Outline: as §1

HeLa-APL = experiment: as above; details: Homo sapiens, 48 h; for GI50: read-out: HELA-APL GI50; for CC50: read-out: HELA-APL LC50
Outline: as §1

SK-MEL-28 = experiment: as above; details: Homo sapiens, SK-MEL-28, 48 h; for GI50: read-out: MEL-28 GI50; for CC50: read-out: MEL-28 LC50; for IC (TGI): read-out: MEL-28 TGI
Outline: as §1

PANC-1 = experiment: as above; details: Homo sapiens, PANC-1, 48 h; for GI50: read-out: PANC-1 GI50; for CC50: read-out: PANC-1 LC50; for IC (TGI): read-out: PANC-1 TGI
Outline: as §1

IGROV-ET = experiment: as above; details: Homo sapiens, 48 h; for GI50: read-out: IGROV-ET GI50; for CC50: read-out: IGROV-ET LC50; for IC (TGI): read-out: IGROV-ET TGI
Outline: as §1

With `C=CCN1[C@@H]2c3c(cc(C)c(OC)c3O)C[C@H]1[C@H](C#N)N1C2[C@@H]2SC[C@]3(NCCc4cc(OC(=O)OC(C)(C)C)c(OC)cc43)C(=O)OC[C@H]1c1c3c(c(C)c(O)c12)OCO3` (some centres unmarked) [compound 46] the GI50 (HT-29) was 0.0429 µM, the CC50 (HT-29) was 11.7 µM and the IC (TGI) (HT-29) was 0.117 µM. It also gave a GI50 (A-549) of 0.0289 µM, a CC50 (A-549) of 2.77 µM and an IC (TGI) (A-549) of 0.0618 µM. It also gave a GI50 (LoVo) of 0.0553 µM, a CC50 (LoVo) of 11.7 µM and an IC (TGI) (LoVo) of 0.304 µM. The GI50 (LNCaP) was 0.0147 µM, the CC50 (LNCaP) was 0.0592 µM and the IC (TGI) (LNCaP) was 0.0296 µM. It also gave a GI50 (HeLa) of 0.0264 µM, a CC50 (HeLa) of 0.0974 µM and an IC (TGI) (HeLa) of 0.0501 µM. For the same compound, the GI50 (SK-BR-3) was 0.0186 µM, the CC50 (SK-BR-3) was 0.247 µM and the IC (TGI) (SK-BR-3) was 0.0532 µM. For the same compound, the GI50 (K-562) was 0.023 µM, the CC50 (K-562) was 4.25 µM and the IC (TGI) (K-562) was 0.0648 µM. It also gave a GI50 (LoVo-Dox) of 0.426 µM, a CC50 (LoVo-Dox) of 11.7 µM and an IC (TGI) (LoVo-Dox) of 1.35 µM. It also gave a GI50 (DU-145) of 0.0234 µM, a CC50 (DU-145) of 0.105 µM and an IC (TGI) (DU-145) of 0.0496 µM. For the same compound, the GI50 (IGROV-1) was 0.0299 µM, the CC50 (IGROV-1) was 11.7 µM and the IC (TGI) (IGROV-1) was 0.0724 µM. For the same compound, the GI50 (HeLa-APL) was 0.0277 µM, the CC50 (HeLa-APL) was 0.0978 µM and the IC (TGI) (HeLa-APL; read-out: HELA-APL TGI) was 0.052 µM. For the same compound, the GI50 (SK-MEL-28) was 0.0296 µM, the CC50 (SK-MEL-28) was 0.107 µM and the IC (TGI) (SK-MEL-28) was 0.0564 µM. The GI50 (PANC-1) was 0.0619 µM, the CC50 (PANC-1) was 11.7 µM and the IC (TGI) (PANC-1) was 0.398 µM. For the same compound, the GI50 (IGROV-ET) was 0.285 µM, the CC50 (IGROV-ET) was 11.7 µM and the IC (TGI) (IGROV-ET) was 1.35 µM.
Work on `C=CCN1[C@@H]2c3c(cc(C)c(OC)c3O)C[C@H]1[C@H](C#N)N1C2[C@@H]2SC[C@]3(NCCc4cc(OC(=O)OC(C)(C)C)c(OC)cc43)C(=O)OC[C@H]1c1c3c(c(C)c(OC(=O)/C=C/c4ccccc4)c12)OCO3` (some centres unmarked) [compound 47] yielded a GI50 (HT-29) of 10.2 µM, a CC50 (HT-29) of 10.2 µM and an IC (TGI) (HT-29) of 10.2 µM. For the same compound, the GI50 (A-549) was 10.2 µM, the CC50 (A-549) was 10.2 µM and the IC (TGI) (A-549) was 10.2 µM. For the same compound, the GI50 (LoVo) was 9.16 µM, the CC50 (LoVo) was 10.2 µM and the IC (TGI) (LoVo) was 10.2 µM. For the same compound, the GI50 (LNCaP) was 0.449 µM, the CC50 (LNCaP) was 10.2 µM and the IC (TGI) (LNCaP) was 2.92 µM. It also gave a GI50 (HeLa) of 4.1 µM, a CC50 (HeLa) of 10.2 µM and an IC (TGI) (HeLa) of 10.2 µM. It also gave a GI50 (SK-BR-3) of 0.301 µM, a CC50 (SK-BR-3) of 10.2 µM and an IC (TGI) (SK-BR-3) of 1.37 µM. For the same compound, the GI50 (K-562) was 0.173 µM, the CC50 (K-562) was 10.2 µM and the IC (TGI) (K-562) was 2.32 µM. The GI50 (LoVo-Dox) was 10.2 µM, the CC50 (LoVo-Dox) was 10.2 µM and the IC (TGI) (LoVo-Dox) was 10.2 µM. For the same compound, the GI50 (DU-145) was 4.12 µM, the CC50 (DU-145) was 10.2 µM and the IC (TGI) (DU-145) was 10.2 µM. The GI50 (IGROV-1) was 4.22 µM, the CC50 (IGROV-1) was 10.2 µM and the IC (TGI) (IGROV-1) was 10.2 µM. For the same compound, the GI50 (HeLa-APL) was 3.74 µM, the CC50 (HeLa-APL) was 10.2 µM and the GI50 (SK-MEL-28) was 8.7 µM. The CC50 (SK-MEL-28) was 10.2 µM, the IC (TGI) (SK-MEL-28) was 10.2 µM and the GI50 (PANC-1) was 10.2 µM. It also gave a CC50 (PANC-1) of 10.2 µM, an IC (TGI) (PANC-1) of 10.2 µM and a GI50 (IGROV-ET) of 4.92 µM. For the same compound, the CC50 (IGROV-ET) was 10.2 µM and the IC (TGI) (IGROV-ET) was 10.2 µM.

From patent publication US7767659B2, “Synthesis of naturally occurring ecteinascidins and related compounds” (Pharma Mar, S.A., priority 2002, dated 2010)
